Measurements: publication PMC4137327 (Journal of neurochemistry, 2014)
Entries after “also recorded” stand apart in the source; their conditions may differ. Where two headings read alike, the source gives them in different places. Ends that are not written are not given here.

Tests used:
[1] = molecular target: T1, Ang-(1–7) peptidase purified from sheep brain medulla (Ovis aries, UniProt A0ACI6RWG7); assay: Inhibitor profile of 125I-Ang-; format: biochemical; conditions: cocktail; for effect of inhibitor on peptidase activity (in words): enriched medullary peptidase, 60 min, 37°C
[2] = molecular target: T1, Ang-(1–7) peptidase purified from sheep brain medulla
[3] = tested on: ACE; conditions: read-out: reported IC50; ref Doulut et al. 1993; cited from earlier work
[4] = molecular target: Ang-(1–7) peptidase activity in CSF (Ovis aries, UniProt A0ACI6RWG7); assay: Inhibitor profile of 125I-Ang-; format: biochemical, sheep; conditions: CSF 25 µl, cocktail, 60 min, 37°C

O[C@@H](CS)[C@@H](O)CS (racemic) [DTT, dithiothreitol]
effect of inhibitor on peptidase activity (in words) ([1]; inhibitor 5 mM, N=3): partial inhibition

CC[C@H](C)[C@H](NC(=O)[C@H](Cc1ccc(O)cc1)NC(=O)[C@@H](NC(=O)[C@H](CCCNC(=N)N)NC(=O)[C@@H](N)CC(=O)O)C(C)C)C(=O)N[C@@H](Cc1cnc[nH]1)C(=O)N1CCC[C@H]1C(=O)N[C@@H](Cc1ccccc1)C(=O)O [Ang II]
hydrolysis of unlabeled peptide by the peptidase ([2]; HPLC analysis, unlabeled peptide 0.4 mM, 24 hours, 37°C): < 5%

CC(C)C[C@H](NC(=O)[C@@H](CC(=O)NO)Cc1ccccc1)C(=O)O [JMV-390, N-[3-[(hydroxyamino)carbonyl]-1-oxo-2(R)-benzylpropyl]-L-leucine]
effect on the peak of Ang-(1–4) from unlabeled Ang-(1–7) (in words) ([2]; 10 µM JMV-390, Ang-(1–7) 400 µM, 24 hours, 37°C (Figure 6B)): abolished
IC50 [3]: 70 µM
effect on the Ang-(1–4) peak (in words) ([1]; 1 nM JMV-390, purified enzyme): reduced the Ang-(1–4) peak
effect on peptidase activity (in words) ([1]; 100 nM JMV-390, purified enzyme): essentially abolished activity

O=S(=O)(F)Cc1ccccc1 [PMSF, phenylmethylsulfonyl fluoride]
effect of inhibitor on peptidase activity (in words) ([1]; inhibitor 100 µM, N=3): insensitive; also recorded: did not inhibit activity

c1cnc2c(c1)ccc1cccnc12 [o-phenanthroline]
effect of inhibitor on peptidase activity (in words) ([1]; inhibitor 1 mM, N=3): abolished peptidase activity; also recorded: sensitive

DRVYIHPFHL [Ang I]
hydrolysis of unlabeled peptide by the peptidase ([2]; sheep, purified brain medulla peptidase, 24 h, 400 µM): < 5%

aprotinin
Inhibitor Sensitivity (% of control) ([4]; inhibitor 80 µM): 100 % of control
effect of inhibitor on peptidase activity (in words) ([1]; inhibitor 80 µM): insensitive

B1: soybean trypsin inhibitor (protein, UniProt P01070 25-205, looked up)
Trypsin inhibitor A: DFVLDNEGNPLENGGTYYILSDITAFGGIRAAPTGNERCPLTVVQSRNELDKGIGTIISSPYRIRFIAEGHPLSLKFDSFAVIMLCVGIPTEWSVVEDLPEGPAVKIGENKDAMDGWFRLERVSDDEFNNYKLVFCPQQAEDDKCGDIGISIDHDDGTRRLVVSKNKPLVVQFQKLDKESL
Inhibitor Sensitivity (% of control) ([4]; inhibitor 100 µM, mean ± SEM): 101 ± 2 % of control
effect of inhibitor on peptidase activity (in words) ([1]; inhibitor 100 µM, N=3): insensitive
